Experiment [1] concerns the target T1, human sphingosine-1-phosphate receptor 1 (S1P1) (Homo sapiens (Human), UniProt P21453). As to the kind of experiment: β-Arrestin2 recruitment assay (PathHunter), S1P1 CHO-K1 cells. To be noted: for Emax: CHO-K1, read-out: hS1P1 B-arrestin2 SPAN. It counts as cell-based. As for the experimental part:
(§1) Stable clonal Chinese hamster ovary K1 (CHO-K1) cells co-expressing EA-β-arrestin2 and the human sphingosine-1-phosphate receptor 1 (NM_001400, S1P1) with a C-terminal Prolink™ tag were purchased from DiscoverX corporation (Cat #: 93-0207C2).
(§2) Cell lines were cultured in AssayComplete™ Media 6 (DiscoverX Corporation, Cat #: 920018GF2) at 37° C. and 5% CO2 in a humidified CO2 and temperature-controlled incubator. To begin assay plating, cells were washed with dulbecco's phosphate buffered saline (CellGro, Cat #: 21-031-CV) and lifted from the culturing flask by incubation (37° C., 5 min) with CellStripper (Cellgro, Cat #: 25-056-CI). […] Plated cells were incubated overnight at 37° C. and 5% CO2 in a humidified CO2 and temperature-controlled incubator. Detecting Inhibition of cAMP Production
Agonist-promoted β-arrestin2 recruitment to the sphingosine-1-phosphate 1 receptor was determined using the β-arrestin PathHunter®) Detection kit (DiscoverX Corporation, Cat #: 93-0001). […] In cells that stably express these fusion proteins, stimulation with a cognate agonist results in the interaction of […] and the Prolink™-tagged GPCR. This allows the complementation of the two β-galactosidase fragments and results in the formation of a functional enzyme with β-galactosidase activity. […] Following a 60 minute incubation at 37° C. and 5% CO2 in a humidified CO2 and temperature-controlled incubator, the components of the β-arrestin PathHunter® Detection kit were added as per the manufacturer's instructions. After an hour incubation at room temperature, plates were analyzed by a BMG PheraStar microplate reader.
(§3) The tables below include the efficacy of the compound as compared to a positive control, referred to as “SPAN”. These values are normalized to fingolimod, a known agonist of the sphingosine-1-phosphate 1 receptor. The tables also include potency values (pEC50) for modulating discrete receptor-mediated activities (inhibition of cAMP production and […] recruitment).
On the technique in general: Arrestin recruitment assays detect the binding of arrestin to an activated receptor.
Target sequence in this assay (P21453 whole entry, looked up): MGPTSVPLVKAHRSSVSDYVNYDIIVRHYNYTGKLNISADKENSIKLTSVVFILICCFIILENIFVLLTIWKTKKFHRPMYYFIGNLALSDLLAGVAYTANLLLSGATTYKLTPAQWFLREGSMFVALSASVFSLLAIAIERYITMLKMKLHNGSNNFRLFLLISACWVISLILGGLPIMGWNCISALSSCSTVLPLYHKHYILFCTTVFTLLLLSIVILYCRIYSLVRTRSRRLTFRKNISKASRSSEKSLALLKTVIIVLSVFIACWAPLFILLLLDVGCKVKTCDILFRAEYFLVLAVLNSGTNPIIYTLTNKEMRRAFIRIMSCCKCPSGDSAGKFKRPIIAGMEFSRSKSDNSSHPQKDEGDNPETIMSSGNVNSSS
Target sequence in this assay (P32121 whole entry partner, looked up): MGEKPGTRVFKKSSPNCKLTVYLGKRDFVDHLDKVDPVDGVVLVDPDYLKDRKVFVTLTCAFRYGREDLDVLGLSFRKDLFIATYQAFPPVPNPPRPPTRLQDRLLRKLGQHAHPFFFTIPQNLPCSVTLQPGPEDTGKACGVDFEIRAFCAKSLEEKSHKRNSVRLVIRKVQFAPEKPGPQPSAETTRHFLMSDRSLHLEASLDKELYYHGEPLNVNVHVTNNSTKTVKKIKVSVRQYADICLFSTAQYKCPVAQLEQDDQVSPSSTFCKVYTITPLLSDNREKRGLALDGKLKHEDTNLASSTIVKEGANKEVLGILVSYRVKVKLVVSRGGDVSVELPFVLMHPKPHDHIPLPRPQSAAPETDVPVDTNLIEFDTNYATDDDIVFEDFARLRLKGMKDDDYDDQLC

The target in experiment [2] is T1, human sphingosine-1-phosphate receptor 1 (S1P1). Kind of experiment: Inhibition of cAMP production (HTRF cAMP HiRange), S1P1 CHO-K1 cells. In kind it is cell-based. Conditions: for Emax: CHO-K1, read-out: hS1P1 cAMP SPAN. As for the experimental part: as §1, §2
Target sequence in this assay (P21453 whole entry, looked up): as the sequence (P21453 whole entry, looked up) above
Agonist-promoted G-protein responses were determined by measuring changes in intracellular cAMP using the HTRF® cAMP HiRange kit (CisBio, Cat #: 62AM6PEJ) based on time-resolved fluorescence resonance energy transfer (TR-FRET) technology. […] Following a 30-minute incubation at 37° C. and 5% CO2 in a humidified CO2 and temperature-controlled incubator, the components of the cAMP HiRange kit were added as per the manufacturer's instructions. After an hour incubation at room temperature, plates were analyzed by a BMG PheraStar microplate reader.
as §3
Background: cAMP levels reflect the balance of adenylyl cyclase and phosphodiesterase activity.

The mark [3] stands for this setting: efficacy (SPAN) normalized to fingolimod.
Setting [4] is: β-arrestin2 recruitment, S1P1 CHO-K1 cells.
[5] abbreviates: inhibition of cAMP production, S1P1 CHO-K1 cells.

With `CC(C)Oc1ccc(-c2nc(-c3ccc4c(c3)nnn4C3CCCC3)no2)cc1C(F)(F)F` [Compound 14, 3-(1-cyclopentyl-1H-benzo[d][1,2,3]triazol-5-yl)-5-(4-isopropoxy-3-(trifluoromethyl)phenyl)-1,2,4-oxadiazole], the Emax in experiment [1] (setting [3]) and in experiment [2] (setting [3]) was less than 75% in each case. Besides, in experiment [1] (setting [4]), the “hS1P1 B-arrestin2 pEC50” value is given as more than 5. In addition, the “hS1P1 cAMP pEC50” value in experiment [2] (setting [5]) was more than 6.5.

On to `COc1cccc(-c2nc(-c3ccc4c(ccn4C(C)C)c3)no2)c1` [Compound 392, 3-(1-isopropyl-1H-indol-5-yl)-5-(3-methoxyphenyl)-1,2,4-oxadiazole], for which, in experiment [1] (setting [4]), the “hS1P1 B-arrestin2 pEC50” value is recorded as less than 5. The “hS1P1 cAMP pEC50” value in experiment [2] (setting [5]) is reported as less than 6.5.

As to `CCC1(CC)CC(=O)c2cc(-c3nc(-c4ccc5[nH]c(=O)[nH]c5c4)no3)ccc2O1` [Compound 539, 5-(5-(2,2-diethyl-4-oxochroman-6-yl)-1,2,4-oxadiazol-3-yl)-1H-benzo[d]imidazol-2(3H)-one], the “hS1P1 B-arrestin2 pEC50” value in experiment [1] (setting [4]) is on record as more than 5. For the same molecule, the “hS1P1 cAMP pEC50” value in experiment [2] (setting [5]) is recorded as more than 6.5.

For the molecule `CCC1(CC)CC(=O)c2cc(-c3nc(-c4ccnc(C(N)=O)c4)no3)ccc2O1` [Compound 555, 4-(5-(2,2-diethyl-4-oxochroman-6-yl)-1,2,4-oxadiazol-3-yl)picolinamide], in experiment [1] (setting [4]), the “hS1P1 B-arrestin2 pEC50” value is more than 5. Further, in experiment [2] (setting [5]), the “hS1P1 cAMP pEC50” value is given as more than 6.5.

As for `Brc1ccccc1-c1nc(-c2ccc3[nH]nnc3c2)no1` [Compound 97, 3-(1H-benzo[d][1,2,3]triazol-5-yl)-5-(2-bromophenyl)-1,2,4-oxadiazole], the Emax in experiment [1] (setting [3]) and in experiment [2] (setting [3]) was less than 75% throughout. The “hS1P1 B-arrestin2 pEC50” value in experiment [1] (setting [4]) was less than 5. In addition, in experiment [2] (setting [5]), the “hS1P1 cAMP pEC50” value is on record as less than 6.5.

As for `Cc1ccncc1-c1noc(-c2ccc3c(c2)nnn3CC(C)(C)O)n1` [Compound 206, 2-methyl-1-{5-[3-(4-methylpyridin-3-yl)-1,2,4-oxadiazol-5-yl]-1H-1,2,3-benzotriazol-1-yl}propan-2-ol], the Emax was less than 75% in experiment [1] (setting [3]) and more than 75% in experiment [2] (setting [3]). Also, the “hS1P1 B-arrestin2 pEC50” value in experiment [1] (setting [4]) was less than 5. For the same molecule, the “hS1P1 cAMP pEC50” value in experiment [2] (setting [5]) is listed as less than 6.5.

`COC(=O)Cn1nnc2cc(-c3noc(-c4ccccc4Br)n3)ccc21` [Compound 81, methyl 2-(5-(5-(2-bromophenyl)-1,2,4-oxadiazol-3-yl)-1H-benzo[d][1,2,3]triazol-1-yl)acetate]: the Emax in experiment [1] (setting [3]) is less than 75%; in experiment [2] (setting [3]), more than 75%. The EC50 was more than 10 µM in experiment [1] (β-arrestin2 recruitment, S1P1 CHO-K1 cells, read-out: hS1P1 B-arrestin2 pEC50 (converted)) and more than 0.316 µM in experiment [2] (inhibition of cAMP production, S1P1 CHO-K1 cells, read-out: hS1P1 cAMP pEC50 (converted)).

Take `CC(C)n1nnc2cc(-c3ncc(-c4ccccc4C(F)(F)F)s3)ccc21` [Compound 215, 2-(1-isopropyl-1H-benzo[d][1,2,3]triazol-5-yl)-5-(2-(trifluoromethyl)phenyl)thiazole]: the Emax in experiment [1] (setting [3]) and in experiment [2] (setting [3]) was less than 75% in each case. The “hS1P1 B-arrestin2 pEC50” value in experiment [1] (setting [4]) is recorded as less than 5. Moreover, the “hS1P1 cAMP pEC50” value in experiment [2] (setting [5]) was less than 6.5.

Consider `CC(C)n1nnc2cc(-c3cc(-c4ccccc4F)c[nH]3)ccc21` [Compound 542, 5-[4-(2-fluorophenyl)-1H-pyrrol-2-yl]-1-(propan-2-yl)-1H-1,2,3-benzotriazole], for which, in experiment [1] (setting [4]), the “hS1P1 B-arrestin2 pEC50” value is more than 5. Moreover, the “hS1P1 cAMP pEC50” value in experiment [2] (setting [5]) is on record as less than 6.5.

Turning to `CCC1(CC)CC(=O)c2cc(-c3nc(-c4ccccn4)no3)ccc2O1` [Compound 111, 2,2-diethyl-6-[3-(2-pyridyl)-1,2,4-oxadiazol-5-yl]chroman-4-one], the Emax in experiment [1] (setting [3]) and in experiment [2] (setting [3]) was more than 75% throughout. Also, the “hS1P1 B-arrestin2 pEC50” value in experiment [1] (setting [4]) was less than 5. In addition, the “hS1P1 cAMP pEC50” value in experiment [2] (setting [5]) is given as less than 6.5.

Regarding `c1ccc(Oc2ccc(-c3noc(-c4ccc5c(c4)nnn5C4CC4)n3)cc2)cc1` [Compound 285, 1-cyclopropyl-5-[3-(4-phenoxyphenyl)-1,2,4-oxadiazol-5-yl]-1H-1,2,3-benzotriazole], the Emax in experiment [1] (setting [3]) and in experiment [2] (setting [3]) was less than 75% in each case. Moreover, in experiment [1] (setting [4]), the “hS1P1 B-arrestin2 pEC50” value is less than 5. The “hS1P1 cAMP pEC50” value in experiment [2] (setting [5]) is recorded as less than 6.5.

Take `Cc1cccc(C)c1-c1noc(-c2ccc3c(c2)nnn3C(C)C)n1` [Compound 243, 3-(2,6-dimethylphenyl)-5-(1-isopropyl-1H-benzo[d][1,2,3]triazol-5-yl)-1,2,4-oxadiazole]: the Emax in experiment [1] (setting [3]) and in experiment [2] (setting [3]) was more than 75% throughout. For the same molecule, the “hS1P1 B-arrestin2 pEC50” value in experiment [1] (setting [4]) was less than 5. Also, in experiment [2] (setting [5]), the “hS1P1 cAMP pEC50” value is less than 6.5.

With `CCOP(=O)(Cc1ccc(-c2noc(-c3ccc4c(c3)nnn4C(C)C)n2)cc1)OCC` [Compound 583, diethyl [(4-{5-[1-(propan-2-yl)-1H-1,2,3-benzotriazol-5-yl]-1,2,4-oxadiazol-3-yl}phenyl)methyl]phosphonate], the “hS1P1 B-arrestin2 SPAN” value in experiment [1] (setting [3]) is less than 75. The “hS1P1 cAMP SPAN” value in experiment [2] (setting [3]) was less than 75.

Regarding `Cc1ccncc1-c1nc(-c2ccc3c(c2)nnn3CC(C)(C)CO)no1` [Compound 541, 2,2-dimethyl-3-(5-(5-(4-methylpyridin-3-yl)-1,2,4-oxadiazol-3-yl)-1H-benzo[d][1,2,3]triazol-1-yl)propan-1-ol], the “hS1P1 B-arrestin2 pEC50” value in experiment [1] (setting [4]) is less than 5. Also, the “hS1P1 cAMP pEC50” value in experiment [2] (setting [5]) is less than 6.5.

Take `COC(=O)NS(=O)(=O)n1c(=O)oc2cc(-c3nnc(-c4ccccc4OC)o3)ccc21` [Compound 342, methyl N-({6-[5-(2-methoxyphenyl)-1,3,4-oxadiazol-2-yl]-2-oxo-2,3-dihydro-1,3-benzoxazol-3-yl}sulfonyl)carbamate]: the Emax in experiment [1] (setting [3]) and in experiment [2] (setting [3]) was less than 75% each time. In experiment [1] (setting [4]), the “hS1P1 B-arrestin2 pEC50” value is on record as less than 5. In experiment [2] (setting [5]), the “hS1P1 cAMP pEC50” value is listed as less than 6.5.

Regarding `CCc1ccccc1-c1nc(-c2ccc3c(c2)nnn3CC(C)(C)CO)no1` [Compound 527, 3-(5-(5-(2-ethylphenyl)-1,2,4-oxadiazol-3-yl)-1H-benzo[d][1,2,3]triazol-1-yl)-2,2-dimethylpropan-1-ol], in experiment [1] (setting [4]), the “hS1P1 B-arrestin2 pEC50” value is listed as less than 5. For the same molecule, the “hS1P1 cAMP pEC50” value in experiment [2] (setting [5]) is listed as less than 6.5.

As for `CC(C)n1nnc2cc(-c3nc(-c4ccc5nc[nH]c5c4)no3)ccc21` [Compound 511, 5-[3-(1H-1,3-benzodiazol-6-yl)-1,2,4-oxadiazol-5-yl]-1-(propan-2-yl)-1H-1,2,3-benzotriazole], the Emax was more than 75% in experiment [1] (setting [3]) and less than 75% in experiment [2] (setting [3]). Also, in experiment [1] (setting [4]), the “hS1P1 B-arrestin2 pEC50” value is reported as more than 5. In experiment [2] (setting [5]), the “hS1P1 cAMP pEC50” value is more than 6.5.

In the case of `Cc1nc2cc(-c3nnc(-c4ccc(NCC(F)F)c(C#N)c4)o3)ccc2[nH]1` [Compound 561, 2-[(2,2-difluoroethyl)amino]-5-[5-(2-methyl-1H-1,3-benzodiazol-5-yl)-1,3,4-oxadiazol-2-yl]benzonitrile], the “hS1P1 B-arrestin2 pEC50” value in experiment [1] (setting [4]) is on record as more than 5. In experiment [2] (setting [5]), the “hS1P1 cAMP pEC50” value was more than 6.5.

For `CCC1(CC)CC(=O)c2cc(-c3nc(-c4cccnn4)no3)ccc2O1` [Compound 621, 2,2-diethyl-6-(3-(pyridazin-3-yl)-1,2,4-oxadiazol-5-yl)chroman-4-one], the “hS1P1 B-arrestin2 pEC50” value in experiment [1] (setting [4]) is recorded as less than 5. For the same molecule, the “hS1P1 cAMP pEC50” value in experiment [2] (setting [5]) is less than 6.5.

For `CSc1ccccc1-c1nc(-c2ccc3c(c2)nnn3C2CCCC2)no1` [Compound 16, 3-(1-cyclopentyl-1H-benzo[d][1,2,3]triazol-5-yl)-5-(2-(methylthio)phenyl)-1,2,4-oxadiazole], in experiment [1] (setting [4]), the “hS1P1 B-arrestin2 pEC50” value was more than 5. In experiment [2] (setting [5]), the “hS1P1 cAMP pEC50” value was less than 6.5.
